This is an account of results in patent US11667606B2, “Thyromimetics” (Autobahn Therapeutics, Inc., priority 2019, dated 2023).

The target in one experiment is T1, TRα (Homo sapiens, UniProt P10827).
T1 construct: expressed in transfected cells; host or cells: HEK293
T1 sequence (P10827 128-410 isoform P10827-2 limits assumed): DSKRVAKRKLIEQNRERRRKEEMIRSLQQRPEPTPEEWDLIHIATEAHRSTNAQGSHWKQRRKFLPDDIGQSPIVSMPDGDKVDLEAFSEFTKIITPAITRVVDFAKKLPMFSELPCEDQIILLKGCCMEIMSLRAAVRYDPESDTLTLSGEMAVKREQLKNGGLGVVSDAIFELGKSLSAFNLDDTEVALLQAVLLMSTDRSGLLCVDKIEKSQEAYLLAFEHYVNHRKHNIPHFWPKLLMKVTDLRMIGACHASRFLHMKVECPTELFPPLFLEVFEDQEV
Kind of experiment: Thyroid-hormone reporter-gene assay, TRα (Gal4 DBD hybrid, luciferase, HEK293). It counts as cell-based. Particulars: reporter cells derived from HEK293, 24 hr incubation, luciferase readout. As to the method:
(§1) Compounds were tested for thyroid-hormone receptor activity using TR reporter-gene assays. Reporter cells used in the assays express a TR-receptor hybrid (either TRα or TRβ) in which the native N-terminal DNA binding domain (DBD) has been replaced with that of the yeast Gal4 DBD. The reporter gene, firefly luciferase, is functionally linked to the Gal4 upstream activation sequence (UAS). Both cell lines were derived from human embryonic kidney (HEK293).
(§2) A suspension of reporter cells was prepared in cell recovery medium containing 10% charcoal-stripped FBS, and dispensed into assay plates. The plates were pre-incubated for 6 hours in a cell culture incubator (37° C./5% CO2/85% humidity).
(§3) These intermediate stocks were subsequently diluted directly into compound screening medium containing 10% charcoal-stripped FBS to generate “2×-concentration” treatment media (containing 0.2, 0.4 or 0.8% DMSO).
(§4) At the end of the pre-incubation period, culture media were discarded from the assay plates, and all wells received 100 μl of compound screening medium. 100 μl of each of the previously prepared “2×-concentration” treatment media were dispensed into duplicate assay wells, thereby achieving the desired final treatment concentrations. The final concentration of DMSO in all assay wells was 0.1, 0.2 or 0.4%. Assay plates were incubated for 24 hr in a cell culture incubator (37° C./5% CO2/85% humidity).
(§5) At the 24 h assay endpoint, treatment media were discarded and […] of luciferase detection reagent was added. Relative luminometer units (RLUs) were quantified from each assay well.

Another experiment addresses T2, TRβ (Homo sapiens, UniProt P10828).
T2 construct: expressed in transfected cells; host or cells: HEK293
T2 sequence (P10828 217-461 limits assumed): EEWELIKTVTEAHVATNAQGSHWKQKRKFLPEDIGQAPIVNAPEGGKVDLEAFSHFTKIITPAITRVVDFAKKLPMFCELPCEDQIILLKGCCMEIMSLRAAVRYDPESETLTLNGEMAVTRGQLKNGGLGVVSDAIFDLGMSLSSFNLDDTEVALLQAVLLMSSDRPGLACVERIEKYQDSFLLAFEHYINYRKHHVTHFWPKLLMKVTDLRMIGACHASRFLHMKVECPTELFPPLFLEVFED
Kind of experiment: Thyroid-hormone reporter-gene assay, TRβ (Gal4 DBD hybrid, luciferase, HEK293). Particulars: for T3-SI, selectivity index (SI) calculated as EC50 (TRα)/EC50 (TRβ): TRβ over TRα selectivity from reporter-gene EC50 values; for EC50: reporter cells derived from HEK293, 24 hr incubation, luciferase readout. The class given is cell-based. The method, then: as §1, §2, §3, §4, §5

Regarding `N#Cc1cccc(-c2cc(Cc3c(Cl)cc(OCC(=O)O)cc3Cl)ccc2O)c1` [Compound 19, 2-(3,5-dichloro-4-((3′-cyano-6-hydroxy-[1,1′-biphenyl]-3-yl)methyl)phenoxy)acetic Acid], the EC50 on TRα was in the range of 0.1 to 1 µM; at TRβ, 0.01 to 0.1 µM. Further, at TRβ, the “T3-SI, selectivity index (SI) calculated as EC50 (TRα)/EC50 (TRβ)” value (“T3-SI, selectivity index (SI) calculated” below) is given as “++ (3X < T3-SI ≤ 30X)”. `CC(=O)Nc1cccc(-c2cc(Cc3c(Cl)cc(OCC(=O)O)cc3Cl)ccc2O)c1` [Compound 9, 2-(4-((3′-acetamido-6-hydroxy-[1,1′-biphenyl]-3-yl)methyl)-3,5-dichlorophenoxy)acetic Acid]: the EC50 at TRβ was above 1 µM. `O=C(O)COc1cc(Cl)c(Cc2ccc(O)c(C(c3ccc(F)cc3)C(F)(F)F)c2)c(Cl)c1` (stereo not drawn) [Compound 125] displayed an EC50 on TRα of 0.1 to 1 µM. In addition, at TRβ, the “T3-SI, selectivity index (SI) calculated” value is given as “++ (3X < T3-SI ≤ 30X)” and the EC50 lay in the range of 0.01 to 0.1 µM. Taken in the same sequence, the figures for `CCCC(c1ccc(F)cc1)c1cc(Cc2c(Cl)cc(OCC(=O)O)cc2Cl)ccc1O` (stereo not drawn) [Compound 102, 2-(3,5-dichloro-4-(3-(1-(4-fluorophenyl)butyl)-4-hydroxybenzyl)phenoxy) acetic Acid] were above 1 µM, “+++ (T3-SI > 30X)” and 0.1 to 1 µM.

The compound `Cc1cccc(-c2cc(Cc3c(Cl)cc(OCC(=O)O)cc3Cl)ccc2O)c1` [Compound 17, 2-(3,5-dichloro-4-((6-hydroxy-3′-methyl-[1,1′-biphenyl]-3-yl)methyl)phenoxy)acetic Acid] displayed an EC50 on TRα above 1 µM. Moreover, at TRβ, the “T3-SI, selectivity index (SI) calculated” value was “++ (3X < T3-SI ≤ 30X)” and the EC50 fell in the range of 0.1 to 1 µM. On to `O=C(O)COc1cc(Cl)c(Cc2ccc(O)c(C(c3ccc(F)cc3)C3CC3)c2)c(Cl)c1` (stereo not drawn) [Compound 107, 2-(3,5-dichloro-4-(3-(cyclopropyl(4-fluorophenyl)methyl)-4-hydroxybenzyl)phenoxy)acetic Acid], for which the EC50 is 0.1 to 1 µM at TRα and 0.01 to 0.1 µM on TRβ. Moreover, the “T3-SI, selectivity index (SI) calculated” value at TRβ is given as “++ (3X < T3-SI ≤ 30X)”. `O=C(O)COc1cc(Cl)c(Cc2ccc(O)c(-c3cccc(C(F)(F)F)c3F)c2)c(Cl)c1` [Compound 49, 2-(3,5-dichloro-4-((2′-fluoro-6-hydroxy-3′-(trifluoromethyl)-[1,1′-biphenyl]-3-yl)methyl)phenoxy)acetic Acid] yielded an EC50 on TRα above 1 µM. Moreover, on TRβ, the “T3-SI, selectivity index (SI) calculated” value is listed as “++ (3X < T3-SI ≤ 30X)” and the 50% effective concentration (EC50) lay in the range of 0.1 to 1 µM. On the same counts, the results for `O=C(O)COc1cc(Cl)c(Cc2ccc(O)c(CCc3ccc(F)cc3)c2)c(Cl)c1` [Compound 135, 2-(3,5-dichloro-4-(3-(4-fluorophenethyl)-4-hydroxybenzyl)phenoxy)acetic Acid] are above 1 µM, “++ (3X < T3-SI ≤ 30X)” and above 1 µM. In the case of `O=C(O)COc1cc(Cl)c(Cc2ccc(O)c(Cc3cccs3)c2)c(Cl)c1` [Compound 123, 2-(3,5-dichloro-4-(4-hydroxy-3-(thiophen-2-ylmethyl)benzyl)phenoxy) acetic Acid], the EC50 at TRα is above 1 µM; on TRβ, 0.1 to 1 µM. On TRβ, the “T3-SI, selectivity index (SI) calculated” value is “++ (3X < T3-SI ≤ 30X)”. In turn, `O=C(O)COc1cc(Cl)c(Cc2ccc(O)c(-c3ccc(F)c(OC(F)F)c3)c2)c(Cl)c1` [Compound 55, 2-(3,5-dichloro-4-((3′-(difluoromethoxy)-4′-fluoro-6-hydroxy-[1,1′-biphenyl]-3-yl)methyl)phenoxy)acetic Acid] registered an EC50 on TRβ above 1 µM. Compound `O=C(O)COc1cc(Cl)c(Cc2ccc(O)c(-c3cccc(CC(F)(F)F)c3)c2)c(Cl)c1` [Compound 26, 2-(3,5-dichloro-4-((6-hydroxy-3′-(2,2,2-trifluoroethyl)-[1,1′-biphenyl]-3-yl)methyl)phenoxy)acetic Acid] returned an EC50 at TRα above 1 µM. Besides, at TRβ, the “T3-SI, selectivity index (SI) calculated” value is “+++ (T3-SI > 30X)” and the EC50 lay in the range of 0.1 to 1 µM. Regarding `O=C(O)COc1cc(Cl)c(Cc2ccc(O)c(-c3cccc(OC(F)(F)F)c3)c2)c(Cl)c1` [Compound 12, 2-(3,5-dichloro-4-((6-hydroxy-3′-(trifluoromethoxy)-[1,1′-biphenyl]-3-yl)methyl)phenoxy)acetic Acid], the EC50 on TRα was above 1 µM. At TRβ, the “T3-SI, selectivity index (SI) calculated” value is recorded as “+++ (T3-SI > 30X)” and the EC50 is 0.1 to 1 µM.

Compound `O=C(O)COc1cc(Cl)c(Cc2ccc(O)c(Cc3ccc(CC(F)(F)F)cc3)c2)c(Cl)c1` [Compound 96, 2-(3,5-dichloro-4-(4-hydroxy-3-(4-(2,2,2-trifluoroethyl)benzyl)benzyl)phenoxy)acetic Acid] registered an EC50 on TRβ above 1 µM.

For `CCc1cccc(-c2cc(Cc3c(C)cc(OCC(=O)O)cc3Cl)ccc2O)c1` [Compound 60, 2-(3-chloro-4-((3′-ethyl-6-hydroxy-[1,1′-biphenyl]-3-yl)methyl)-5-methylphenoxy)acetic Acid], the EC50 is above 1 µM at TRα and 0.1 to 1 µM at TRβ. At TRβ, the “T3-SI, selectivity index (SI) calculated” value was “+++ (T3-SI > 30X)”. The compound `CS(=O)(=O)c1cccc(-c2cc(Cc3c(Cl)cc(OCC(=O)O)cc3Cl)ccc2O)c1` [Compound 14, 2-(3,5-dichloro-4-((6-hydroxy-3′-(methylsulfonyl)-[1,1′-biphenyl]-3-yl)methyl)phenoxy)acetic Acid] displayed an EC50 on TRβ above 1 µM. The same measure, in the same setting: with `O=C(O)COc1cc(Cl)c(Cc2ccc(O)c(Cc3cncnc3)c2)c(Cl)c1` [Compound 94, 2-(3,5-dichloro-4-(4-hydroxy-3-(pyrimidin-5-ylmethyl)benzyl)phenoxy) acetic Acid] the figure was above 1 µM. On the same count and under the same terms, with `CCOC(=O)c1cccc(-c2cc(Cc3c(Cl)cc(OCC(=O)O)cc3Cl)ccc2O)c1` [Compound 6, 2-(3,5-dichloro-4-((3′-(ethoxycarbonyl)-6-hydroxy-[1,1′-biphenyl]-3-yl)methyl)phenoxy)acetic Acid] the figure was above 1 µM. The same measure, in the same setting: with `N#Cc1ccc(Cc2cc(Cc3c(Cl)cc(OCC(=O)O)cc3Cl)ccc2O)cc1` [Compound 80, 2-(3,5-dichloro-4-(3-(4-cyanobenzyl)-4-hydroxybenzyl)phenoxy)acetic Acid] the figure was above 1 µM; with `COCc1cccc(-c2cc(Cc3c(Cl)cc(OCC(=O)O)cc3Cl)ccc2O)c1` [Compound 15, 2-(3,5-dichloro-4-((6-hydroxy-3′-(methoxymethyl)-[1,1′-biphenyl]-3-yl)methyl)phenoxy)acetic Acid], above 1 µM. Turning to `O=C(O)COc1cc(Cl)c(Cc2ccc(O)c(-c3cc(F)cc(C(F)(F)F)c3)c2)c(Cl)c1` [Compound 50, 2-(3,5-dichloro-4-((3′-fluoro-6-hydroxy-5′-(trifluoromethyl)-[1,1′-biphenyl]-3-yl)methyl)phenoxy)acetic Acid], the EC50 at TRβ is 0.1 to 1 µM. On the same count and under the same terms, with `O=C(O)COc1cc(Cl)c(Cc2ccc(O)c(-c3cccc(CO)c3)c2)c(Cl)c1` [Compound 8, 2-(3,5-dichloro-4-((6-hydroxy-3′-(hydroxymethyl)-[1,1′-biphenyl]-3-yl)methyl)phenoxy)acetic Acid] the figure was above 1 µM; with `O=C(O)COc1cc(Cl)c(Cc2ccc(O)c(-c3cccc(C(F)(F)C(F)(F)F)c3)c2)c(Cl)c1` [Compound 28, 2-(3,5-dichloro-4-((6-hydroxy-3′-(perfluoroethyl)-[1,1′-biphenyl]-3-yl)methyl)phenoxy)acetic Acid], above 1 µM; with `Cc1ccc(Cc2cc(Cc3c(Cl)cc(OCC(=O)O)cc3Cl)ccc2O)cc1` [Compound 92, 2-(3,5-dichloro-4-(4-hydroxy-3-(4-methylbenzyl)benzyl)phenoxy)acetic Acid], above 1 µM. In the case of `Cc1ccoc1-c1cc(Cc2c(Cl)cc(OCC(=O)O)cc2Cl)ccc1O` [Compound 44, 2-(3,5-dichloro-4-(4-hydroxy-3-(3-methylfuran-2-yl)benzyl)phenoxy)acetic Acid], the EC50 on TRβ was above 1 µM.

Compound `O=C(O)COc1cc(Cl)c(Cc2ccc(O)c(-c3ccc(C(F)(F)F)s3)c2)c(Cl)c1` [Compound 37] returned an EC50 on TRβ above 1 µM. On the same count and under the same terms, with `O=C(O)COc1cc(Cl)c(Cc2ccc(O)c(-c3ccc(F)c(C(F)(F)F)c3)c2)c(Cl)c1` [Compound 48, 2-(3,5-dichloro-4-((4′-fluoro-6-hydroxy-3′-(trifluoromethyl)-[1,1′-biphenyl]-3-yl)methyl)phenoxy)acetic acid] the figure was above 1 µM.

In general, EC50 refers to the concentration at which the effect is half-maximal. A higher EC50 goes with lower potency in that assay.
